Among the test systems are HCT-116; A498; COLO 205; SR; OVCAR-5; Hs-578T; BT-549; NCI-H522; UO-31; CCRF-CEM; 786-0; EKVX; NCI-H460; SN12C; TK-10; NCI-H226; NCI-H23; SK-MEL-5; ACHN; MDA-N.
Test in all cases: growth of human tumour cells (NCI), 48 h

Data on 10 compounds can be found in ChEMBL document CHEMBL1201862, “PubChem BioAssay data set” (2004).

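Where inhibition never reached the appropriate level, the endpoint shown equals the highest concentration tested. Otherwise, values were interpolated linearly from a five-concentration, 48-hour dose response in 96-well plates. GI50 is the concentration that inhibits growth by half.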 Active and inactive are the calls of the source. Cut-off read from the data, not from the text of the source: active = GI50 up to about 1.1 µM and inactive = higher. Some results are limits rather than exact numbers.

On to `N=C(N)SC(c1ccccc1)c1ccccc1`, for which the GI50 is 12.2 µM (inactive) in the assay with HCT-116; 17.3 µM (inactive) in the assay on A498; 21.8 µM (inactive) in the assay with COLO 205; 24 µM (inactive) in the assay on SR; 14.2 µM (inactive) with OVCAR-5; 27.1 µM (inactive) with Hs-578T. The GI50 in the assay on BT-549 is 17.6 µM (inactive); in the assay with NCI-H522, 13.2 µM (inactive); in the assay on UO-31, 11.2 µM (inactive); in the assay with CCRF-CEM, 10.5 µM (inactive); with 786-0 it was 12.6 µM (inactive); in the assay with EKVX, 15 µM (inactive). Also, the GI50 with NCI-H460 is 16.6 µM (inactive); in the assay on SN12C, 16 µM (inactive); with TK-10, 14.5 µM (inactive); with NCI-H226 it was 33.8 µM (inactive); in the assay on NCI-H23, 13 µM (inactive); with SK-MEL-5, 17.3 µM (inactive). Further, the figures for the GI50 with ACHN and in the assay on MDA-N were 14.9 µM (inactive) and 13.6 µM (inactive), respectively.

As for `COc1nc2c(c(=O)n1C)NC(C(O)C(O)CO)C=N2` (stereo not given), the GI50 with HCT-116, in the assay on A498, in the assay on COLO 205, with SR, in the assay on OVCAR-5 and with Hs-578T was > 10 µM (inactive) in each case. The GI50 with BT-549, with NCI-H522, with UO-31, in the assay with CCRF-CEM, in the assay on 786-0 and in the assay with EKVX was > 10 µM (inactive) in each case. For the same compound, the GI50 with NCI-H460, in the assay with SN12C, in the assay on TK-10, in the assay with NCI-H226, with NCI-H23 and in the assay on SK-MEL-5 was > 10 µM (inactive) in each case. Further, the GI50 with ACHN and in the assay on MDA-N was > 10 µM (inactive) in each case.

On to `N[C@H](C(=O)O)[C@@H]1CC(Br)=NO1`, for which the GI50 with HCT-116 is 5.6 µM (inactive); with A498, 18.1 µM (inactive); with COLO 205, 33.3 µM (inactive); in the assay with SR, 3.66 µM (inactive); in the assay with OVCAR-5 it was 16.8 µM (inactive); in the assay on Hs-578T, 8.95 µM (inactive). The GI50 was > 27 µM (inactive) in the assay with BT-549; > 32 µM (inactive) with NCI-H522; 6.46 µM (inactive) with UO-31; 14.1 µM (inactive) in the assay with CCRF-CEM; 13 µM (inactive) in the assay on 786-0; 10.9 µM (inactive) in the assay with EKVX. Further, the GI50 was 4.31 µM (inactive) in the assay on NCI-H460; 38.3 µM (inactive) in the assay with SN12C; 16 µM (inactive) in the assay on TK-10; > 96.6 µM (inactive) in the assay on NCI-H226; > 35.7 µM (inactive) in the assay on NCI-H23; 14.5 µM (inactive) in the assay with SK-MEL-5. The figures for the GI50 in the assay with ACHN and in the assay on MDA-N were 8.22 µM (inactive) and 8.41 µM (inactive), respectively.

Turning to `Cc1cc2c(cc1C)[n+]([O-])c(C(=O)/C=C/c1ccccc1[N+](=O)[O-])c(C)[n+]2[O-]`, the GI50 in the assay with HCT-116 was 70.8 µM (inactive); in the assay with A498, 61.2 µM (inactive); in the assay with COLO 205 it was 99.3 µM (inactive); with SR, 55.6 µM (inactive); in the assay on OVCAR-5 it was > 100 µM (inactive); in the assay with Hs-578T it was 39.3 µM (inactive). For the same compound, the GI50 was > 81.8 µM (inactive) in the assay on BT-549; 28.6 µM (inactive) with NCI-H522; 99.5 µM (inactive) in the assay on UO-31; > 100 µM (inactive) in the assay on CCRF-CEM; 33 µM (inactive) in the assay with 786-0; 58.2 µM (inactive) in the assay with EKVX. Besides, the GI50 in the assay on NCI-H460 is 71.6 µM (inactive); in the assay with SN12C, 69 µM (inactive); in the assay on TK-10, 49.9 µM (inactive); in the assay on NCI-H226, 67.5 µM (inactive); in the assay with NCI-H23, 48.5 µM (inactive); in the assay on SK-MEL-5 it was > 100 µM (inactive). Moreover, the GI50 in the assay on ACHN is 46.3 µM (inactive); with MDA-N it was > 96.2 µM (inactive).

Take `Nc1ncnc2c(C3OC(CO)C(O)C3O)c[nH]c12` (stereo not given): the GI50 is 0.01 µM (active) in the assay on HCT-116; 0.0213 µM (active) with A498; 0.01 µM (active) in the assay with COLO 205; 0.00298 µM (active) in the assay on SR; 0.00804 µM (active) with OVCAR-5; 0.00129 µM (active) with Hs-578T. The GI50 was 0.0138 µM (active) with BT-549; 0.00614 µM (active) with NCI-H522; 0.00426 µM (active) with UO-31; 0.00224 µM (active) in the assay with CCRF-CEM; 0.00317 µM (active) with 786-0; 0.0144 µM (active) in the assay with EKVX. Further, the GI50 in the assay on NCI-H460 is 0.00269 µM (active); in the assay on SN12C, 0.00377 µM (active); in the assay with TK-10, 0.0705 µM (active); with NCI-H226, < 0.0138 µM (active); in the assay with NCI-H23 it was 0.0131 µM (active); with SK-MEL-5 it was 0.00564 µM (active). The GI50 was 0.00125 µM (active) with ACHN and 0.0131 µM (active) in the assay with MDA-N.

Regarding `O=C1/C(=C\c2cccc(Oc3ccccc3)c2)SC(c2ccccc2)N1c1ccccc1Cl` (stereo not given), the GI50 in the assay with HCT-116 is 14.9 µM (inactive); in the assay with A498, 46.1 µM (inactive); in the assay on COLO 205 it was 21.8 µM (inactive); with SR, 19.3 µM (inactive); in the assay on OVCAR-5, 76 µM (inactive); in the assay with Hs-578T it was 16.5 µM (inactive). Further, the GI50 with BT-549 was 21.3 µM (inactive); in the assay with NCI-H522, 13.6 µM (inactive); in the assay on UO-31, 31 µM (inactive); in the assay with CCRF-CEM, 6.87 µM (inactive); with 786-0, 25.6 µM (inactive); in the assay with EKVX, 28.8 µM (inactive). Besides, the GI50 was 29.6 µM (inactive) with NCI-H460; 26 µM (inactive) in the assay on SN12C; 34.8 µM (inactive) in the assay on TK-10; 26.2 µM (inactive) in the assay with NCI-H226; 17.5 µM (inactive) in the assay with NCI-H23; 15.1 µM (inactive) in the assay on SK-MEL-5. The GI50 in the assay with ACHN was 39.6 µM (inactive); in the assay on MDA-N, 20 µM (inactive).

As for `CN(CCCN1CCCC1)CCCN(C)C(=O)Cc1ccc(Cl)c(Cl)c1`, the GI50 with HCT-116 is 13.6 µM (inactive); with A498, 14.5 µM (inactive); with COLO 205 it was 17.6 µM (inactive); with SR, 11.9 µM (inactive); in the assay on OVCAR-5, 29.4 µM (inactive); in the assay with Hs-578T, 5.85 µM (inactive). Moreover, the GI50 was 18.6 µM (inactive) with BT-549; 15.7 µM (inactive) in the assay with NCI-H522; 4.69 µM (inactive) with UO-31; 6.85 µM (inactive) in the assay on CCRF-CEM; 13.4 µM (inactive) with 786-0; 24.1 µM (inactive) in the assay on EKVX. The GI50 in the assay on NCI-H460 is 16.3 µM (inactive); with SN12C, 21 µM (inactive); in the assay with TK-10, 16.2 µM (inactive); in the assay on NCI-H226, 26.2 µM (inactive); in the assay on NCI-H23, 21.2 µM (inactive); with SK-MEL-5, 15.3 µM (inactive). The GI50 with ACHN was 27.6 µM (inactive); with MDA-N, 4.22 µM (inactive).

Take `COc1cccc2c1C(=O)c1c(O)c3c(c(O)c1C2=O)C[C@@](O)(C(=O)CO)C[C@@H]3OC1CC2C(OCN3CN2COC2C(C)OC(O[C@H]4C[C@](O)(C(=O)CO)Cc5c(O)c6c(c(O)c54)C(=O)c4c(OC)cccc4C6=O)CC23)C(C)O1` (stereo not given in full): the GI50 with HCT-116 is 0.0289 µM (active); in the assay on A498, 0.0559 µM (active); with COLO 205 it was 0.0614 µM (active); in the assay on SR, 0.00119 µM (active); in the assay on OVCAR-5 it was 0.131 µM (active); in the assay with Hs-578T it was 0.0559 µM (active). Besides, the GI50 in the assay with BT-549 was 0.157 µM (active); in the assay with NCI-H522 it was 0.0218 µM (active); in the assay on UO-31, 0.139 µM (active); with CCRF-CEM, 0.00916 µM (active); in the assay on 786-0 it was 0.02 µM (active); in the assay on EKVX, 0.203 µM (active). Besides, the GI50 in the assay with NCI-H460 was 0.00433 µM (active); in the assay on SN12C, 0.0231 µM (active); in the assay with TK-10, 0.0412 µM (active); in the assay on NCI-H226, 0.0665 µM (active); in the assay with NCI-H23 it was 0.027 µM (active); with SK-MEL-5, 0.0614 µM (active). Moreover, the GI50 was 0.0634 µM (active) in the assay on ACHN and 0.0923 µM (active) in the assay on MDA-N.

With `CCN(CC(COc1ccc2c(c1)[n+]([O-])nc(N)[n+]2[O-])OC(C)=O)C(C)=O` (stereo not given), the GI50 in the assay with HCT-116 was 78.7 µM (inactive); in the assay with A498, 25.9 µM (inactive); in the assay with COLO 205, 32.2 µM (inactive); in the assay on SR it was > 100 µM (inactive); in the assay on OVCAR-5 it was > 100 µM (inactive); with Hs-578T it was 51.3 µM (inactive). Further, the GI50 is > 100 µM (inactive) in the assay with BT-549; 16.4 µM (inactive) in the assay with NCI-H522; 72.3 µM (inactive) with UO-31; 48.2 µM (inactive) with CCRF-CEM; 93.1 µM (inactive) with 786-0; 52.2 µM (inactive) in the assay with EKVX. Besides, the GI50 was > 10 µM (inactive) in the assay on NCI-H460; > 100 µM (inactive) in the assay with SN12C; > 100 µM (inactive) in the assay with TK-10; > 100 µM (inactive) in the assay with NCI-H226; 49.5 µM (inactive) in the assay with NCI-H23; 32 µM (inactive) in the assay with SK-MEL-5. The GI50 with ACHN is > 100 µM (inactive); with MDA-N, 85.7 µM (inactive).

As for `Cc1coc2c1C(=O)C(=O)c1c-2ccc2c1CCCC2(C)C` [TANSHINONE IIA], the GI50 in the assay on HCT-116 is 1.55 µM (inactive); in the assay on A498 it was 7.74 µM (inactive); in the assay with COLO 205, 8.07 µM (inactive); in the assay on SR, 0.757 µM (active); in the assay on OVCAR-5 it was 9.42 µM (inactive); with Hs-578T it was 3.73 µM (inactive). Also, the GI50 in the assay with BT-549 was 2.1 µM (inactive); in the assay with NCI-H522 it was 1.54 µM (inactive); in the assay with UO-31, 2.33 µM (inactive); with CCRF-CEM, 7.52 µM (inactive); with 786-0, 1.87 µM (inactive); in the assay on EKVX, 30.3 µM (inactive). For the same compound, the GI50 in the assay with NCI-H460 is 1.17 µM (inactive); in the assay on SN12C, 3.7 µM (inactive); in the assay with TK-10, 21.6 µM (inactive); with NCI-H226 it was 2.29 µM (inactive); in the assay on NCI-H23, 1.14 µM (inactive); with SK-MEL-5 it was 0.213 µM (active). Also, the GI50 was 7.33 µM (inactive) in the assay on ACHN and 1.37 µM (inactive) in the assay on MDA-N.
